Measured values from EP1100507B1, “USE OF A COMBINATION COMPRISING A PRECURSOR OF URIC ACID AND ANTIOXIDANT FOR THE TREATMENT OF NEURODEGENERATIVE DESEASES” (Sacks, Meir S., priority 1998, dated 2000).

Columns and labels:
[1] = Luminol dependent chemiluminescence activated by SIN-1 (peroxynitrite generator); format: biochemical
Description: (§1) We studied the effect of Green tea leaf extract on peroxynitrite. This study is based on a simple chemical interaction of peroxynitrite (OONO-) and luminol which produces blue light upon oxidation. […] In addition peroxynitrite itself was used directly with a fast injection-mixing system to ascertain if there might be differences between it and the peroxynitrite generating system (SIN-1) which mimics the natural production of (OONO-). […] Upon the stimulation of inflammation and/or infection, macrophages and neutrophils can be stimulated to produce large amounts of peroxynitrite.
(§2) The antioxidant effect of green tea and some of its constituents against luminol dependent chemiluminesence activated by peroxynitrite. Since peroxynitrite oxidizes luminol to an intermediate that produces light, antioxidants will inhibit this blue light by interfering with the oxidation of the luminol. In addition, we used SIN-1 which produces both superoxide and nitric oxide which combine to produce peroxynitrite. […] The purpose of this study was to measure the antioxidant activity of green tea extract and some of its prominent polyphenols. This is accomplished by using the antioxidants to oppose the oxidation of luminol by peroxynitrite thereby inhibiting the production of blue light.
(§3) Three sydnonimine congeners are known to produce both nitric oxide and superoxide and then combine to produce peroxynitrite (ONOO). […] It was kept on ice and maintained its activity for several hours of the experiment. Peroxynitrite (approx 50 mM) was diluted 1/1000 with water. The original solution is supplied in 0.3M NaOH and this stabilizes the compound. Once diluted it must be kept on ice and used quickly, especially after dilution. When the diluted OONO- is injected into the PBS buffer at pH=7.4. […] However, the slower reaction with SIN-1 gives an opportunity to dissect the reaction into its component parts, since rapid reaction and injection/mixing are not so crucial.
(§4) The luminol was obtained from Sigma Chemical Company, St. Louis, Mo. It was dissolved first in one ml DMSO and then diluted to produce a stock solution (10^-4M) in 0.1 M Phosphate buffered saline at a pH of 7.4.
Green tea powdered extract was purchased from Pharmanex, Simi Valley, California. 250mg was dissolved in 10ml of phosphate buffered saline (PBS) with pH of 7.4 and used as a stock solution. Dilutions were made using PBS and samples from this original stock solution were diluted every ten fold from one to a million (six samples).
A control solution was also used to provide a reference to the light stimulation produced by the combination of SIN-1 and luminol.
(§5) The luminometer tube was placed in a Berthold model LB9505C tube-6 channel luminometer with the temperature control set at 37°C and the light reaction was measured for 20 minutes. Peroxynitrite reacts with luminol directly and was injected using an essentially pressure-independent injection device, which injects 1/50 of it's total volume (2500 µm) of a gas tight syringe, made by the Hamilton Co. (pat. # 3161323) in Whittier, CA, to produce a blue light at 425 nm, which corresponds to the most sensitive detection range of the photomultipliers for this luminometer. The injection device was linked to a gastight 2500 microliter syringe with a fixed needle of 5.2 cm. This length of needle was necessary to penetrate the septum of the ports of the 6 channel Berthold Luminometer and to extend into the tube far enough to produce reproducible mixing necessary because of the short half-life of peroxynitrite. In Fig. 7, repetitive injections of peroxynitrite are shown giving the light generated over a one minute time period which was acquired, plotted and integrated with an IBM clone computer running KINB software. In the case of SIN-1, the ingredients were mixed prior to assay, with SIN-1 added fast. The assay is reported as counts per minute integrated over the 20 minute time period. […]

[2] = Luminol dependent chemiluminescence activated by directly injected peroxynitrite; format: biochemical; conditions: for inhibition of peroxynitrite-based luminol light: 1000 fold dilution; for relative antioxidant activity among the catechins tested: peroxynitrite or SIN-1 based light
Protocol: The end product of purine metabolism in humans is uric acid. This substance is an excellent antioxidant that can interact directly with nearby peroxynitrite. Figure 2 is a graph depicting interaction of peroxynitrite and uric acid and the inhibition of peroxynitrite based chemiluminescence. Figure 2 illustrates the oxidative reaction of peroxynitrite an luminol to produce light (chemiluminescence) and the interference with light which is produced by uric acid at a concentration of 10 µM. […] Allantoin is the end product of purine metabolism in animals except for man, great apes and some dalmatian dogs. […] Such an oxidant occurs most likely through peroxynitrite or possibly hypochlorite.
as §1, §2, §3, §4
as §5, with “software.” for “software. In the case of SIN-1, the ingredients were mixed prior to assay, with SIN-1 added fast. The assay is reported as counts per minute integrated over the 20 minute time period.”

[3] = cited from earlier work; for uricosuric effect / uric acid levels in the blood: normal, hyperuricemic and gouty humans; for abilities to increase uric acid levels: nucleotides compared to nucleosides; for increasing blood uric acid levels: nucleotides compared with DNA and RNA
[4] = administered in large amounts (95 mg/kg); oxidized to 2,8 dihydroxyadenine; cited from earlier work
[5] = cited from earlier work
[6] = test system: allergic encephalomyelitis (EAE); conditions: mice, 500 mg/kg four times a day, started before or after clinical symptoms of EAE; cited from earlier work
[7] = 1:1000 dilution (stock 0.45 mMolar)
[8] = 1:100 dilution from stock at 0.45 mMolar

With Oc1cc(O)c2c(c1)OC(c1ccc(O)c(O)c1)C(O)C2 (racemic) [racemic catechin, (±) catechin] the “inhibition of SIN-1 activated luminol light” value [1, 7] was 50%, the “inhibition of SIN-1 activated luminol light” value ([1]; 1:1000 dilution (stock 0.45 mMolar), listed as Racemic catechin) was “about 50%” and the “inhibition of SIN-1 activated luminol light” value ([1]; 10 fold dilutions after 1:1000) was “little inhibition”. The “inhibition of peroxynitrite-based light” value ([2]; 1:10,000 dilution) was 50%, the “inhibition of peroxynitrite-based light” value ([2]; 1:10,000 dilution, listed as Racemic catechin) was “about 50%” and the “inhibition of peroxynitrite-based light” value ([2]; 1:100,000 dilution) was 50%. The “inhibition of peroxynitrite-based luminol light” value [2] was “about 50%” and the “relative antioxidant activity among the catechins tested” value [2] was “very active”.

For Nc1ncnc2c1ncn2[C@@H]1O[C@H](COP(=O)(O)O)[C@@H](O)[C@H]1O [AMP], the “uricosuric effect / uric acid levels in the blood” value [3] is listed as “raised uric acid levels in the blood”, the “abilities to increase uric acid levels” value [3] is listed as “equivalent” and the “increasing blood uric acid levels” value [3] is listed as “more effective than DNA and RNA”.

In the case of Nc1nc2c(ncn2[C@@H]2O[C@H](COP(=O)(O)O)[C@@H](O)[C@H]2O)c(=O)[nH]1 [GMP], the “uricosuric effect / uric acid levels in the blood” value [3] is given as “raised uric acid levels in the blood”, the “abilities to increase uric acid levels” value [3] is given as “equivalent” and the “increasing blood uric acid levels” value [3] is given as “more effective than DNA and RNA”.

In the case of Nc1ncnc2nc[nH]c12 [adenine], the “uricosuric effect / uric acid levels in the blood” value [3] is given as “raised uric acid levels in the blood” and the toxicity [4] is given as “can crystallize to form kidney stones”.

For Nc1nc2nc[nH]c2c(=O)[nH]1 [guanine], the “uricosuric effect / uric acid levels in the blood” value [3] is given as “ineffective”.

In the case of Nc1nc2c(ncn2[C@@H]2O[C@H](CO)[C@@H](O)[C@H]2O)c(=O)[nH]1 [guanosine], the “abilities to increase uric acid levels” value [3] is listed as “equivalent”.

For O=c1[nH]cnc2nc[nH]c12 [hypoxanthine], the “uricosuric effect / uric acid levels in the blood” value [3] is given as “raised uric acid levels in the blood” and the “effectiveness as precursor of uric acid” value ([3]; overall, of AMP, GMP and hypoxanthine) is given as “most effective precursor of uric acid”.

For OC[C@H]1O[C@@H](n2cnc3c(O)ncnc32)[C@H](O)[C@@H]1O [inosine], the “abilities to increase uric acid levels” value [3] is listed as “equivalent”.

For O=c1[nH]c(=O)c2[nH]c(=O)[nH]c2[nH]1 [uric acid], the solubility in water [5] is listed as “highly insoluble in water”, the survival [6] is listed as “long time survival” and the “inhibition of the oxidative reaction of peroxynitrite and luminol (chemiluminescence)” value ([2]; uric acid 10 µM, peroxynitrite 10 µM) is listed as “about 99%”.

In the case of O=c1[nH]c(=O)c2[nH]cnc2[nH]1 [xanthine], the “uricosuric effect / uric acid levels in the blood” value [3] is listed as “ineffective”.

In the case of (-) epicatechin gallate, the “inhibition of SIN-1 activated luminol light” value [1, 7] is reported as “about 50%”, the “inhibition of SIN-1 activated luminol light” value ([1]; 1:1000 dilution (stock 0.45 mMolar), listed as epicatechin gallate (-)) is reported as 60% and the “inhibition of light, peroxynitrite as activator of luminol light” value ([2]; 1:10 dilution) is reported as 100%. For the same molecule, the “inhibition of peroxynitrite-based luminol light” value [2] was “about 50%”, the “inhibition of light production, peroxynitrite as activator of luminol light” value ([2]; consecutive 10 fold dilution after 1:10) was “about 25%” and the “relative antioxidant activity among the catechins tested” value [2] was “second most active antioxidant”.

For (-) epigallocatechin gallate, the “inhibition of SIN-1 activated luminol light” value ([1]; 1:10 dilution) was 100%, the “effect on light from SIN-1” value [1, 8] was “stimulation of light” and the “inhibition of SIN-1 activated luminol light” value ([1]; full strength) was 100%. For the same molecule, the “effect on SIN-1 activated luminol light” value ([1]; further dilution beyond 1:10) was “stimulate production of light”, the “effect on light from peroxynitrite” value [2, 8] was “stimulation of light” and the “pattern with peroxynitrite based light compared with SIN-1 activated light” value ([2]; full strength and 10 fold dilutions) was “same pattern of behavior”. The “relative antioxidant activity among the catechins tested” value [2] was “weakest antioxidant tested”.
